Results published in patent US5401512A, “Delayed release oral dosage forms for treatment of intestinal disorders” (priority 1991, dated 1995).

Legend:
[1] = cited from earlier work; for Absorption before reaching the colon: oral administration, sulphapyridine and 5-ASA without the azo-bond
[2] = Serum levels of 5-ASA and N-acetyl-5-ASA after single oral dose in seven healthy volunteers; type: in vivo, healthy volunteers (human); settings: 7 volunteers
Protocol: (§1) Each of the batches of coated granules were separately packed into size 00 hard gelatin capsules (LOK-CAP, Eli Lilly) in an amount of 400 mg granules per capsule. The capsules were then spray coated with […] per capsule of a coating solution of the following formula: […]
(§2) Seven healthy volunteers were then each given blind on three separate occasions a single dose consisting of (a) 8 tablets of enteric coated 500 mg sulphasalazine tablets, (b) 8 of the enteric coated capsules containing the 20% Eudragit coated 5-ASA granules, and (c) 8 of the enteric coated capsules containing the 25% Eudragit coated 5-ASA granules. The serum levels of 5-ASA and N-acetyl-5-ASA at various times following administration were measured together with the total urinary excretion of 5-ASA and N-acetyl-5-ASA. In each case the values are given to three significant figures with 0 representing less than 2 ng/ml. The following abbreviations are used:
Tmax =time for the maximum serum concentration in hours, median and interquartials ranges
Cmax =maximum serum concentration attained in ng/ml
Thalf =estimated biological half life of elimination
KE=estimated first order in elimination rate constant

[3] = Total urinary excretion of 5-ASA and N-acetyl-5-ASA after single oral dose in seven healthy volunteers; type: in vivo, healthy volunteers (human); settings: 7 volunteers
Protocol: as §1
as §2, with “ng/ml.” for “ng/ml. The following abbreviations are used:”

Thalf (estimated biological half life of elimination) of 5-ASA ([2]; 5-ASA) | Thalf (estimated biological half life of elimination) of N-Ac-5-ASA ([2]; N-Ac-5-ASA) | Mean urinary excretion of 5-ASA ([3]; 5-ASA) | Mean urinary excretion of N-Ac-5-ASA ([3]; N-Ac-5-ASA) | Structure (SMILES) | Absorption before reaching the colon [1] | Pharmacologically active agent in treatment of colonic disease with SASP ([1]; Khan et al, The Lancet 1977)
 |  |  |  | Nc1ccc(S(=O)(=O)Nc2ccccn2)cc1 [sulphapyridine] | almost entirely absorbed from the small intestine before reaching the colon | 
19.4 ± 12.9 | 60.1 ± 50.1 | 0 ± 0 ng/mL | 170 ± 35 ng/mL | O=C(O)c1cc(/N=N/c2ccc(S(=O)(=O)Nc3ccccn3)cc2)ccc1O [Sulphasalazine, Salicylazosulphapyridine] | only absorbed to a limited extent before reaching the colon | 
 |  |  |  | Nc1ccc(O)c(C(=O)O)c1 [5-ASA, 5-amino-salicylic acid] | almost entirely absorbed from the small intestine before reaching the colon | pharmacologically active agent
